Test results published in ChEMBL document CHEMBL4765430, “Endeavors towards transformation of M. tuberculosis thymidylate kinase (MtbTMPK) inhibitors into potential antimycobacterial agents” (Eur J Med Chem, 2020).
≈ marks a conversion by molar mass, not a printed value.

Experiments:
[1] = Inhibition of wild-type Mycobacterium tuberculosis thymidylate kinase expressed in Escherichia coli BLi5 competent cells using dTMP as substrate by lactate dehydrogenase, pyruvate kinase and nucleoside diphosphate kinase coupled spectrophotometric method
[2] = system: Mycobacterium tuberculosis; assay: Antitubercular activity against Mycobacterium tuberculosis H37Ra incubated for 7 to 14 days under 7H9/glucose medium; format: functional; settings: time 7-14 day
[3] = system: Mycobacterium tuberculosis; assay: Antitubercular activity against Mycobacterium tuberculosis H37Rv ATCC 27294 incubated for 7 to 14 days under 7H9/glucose medium; format: functional; settings: time 7-14 day
[4] = system: Mycobacterium tuberculosis; assay: Antitubercular activity against Mycobacterium tuberculosis H37Rv ATCC 27294 incubated for 7 to 14 days under GAST (Fe(+)) medium; format: functional; settings: time 7-14 day
[5] = system: Mycobacterium tuberculosis; assay: Antitubercular activity against Mycobacterium tuberculosis H37Rv ATCC 27294 incubated for 7 to 14 days under GAST (Fe(-)) medium; format: functional; settings: time 7-14 day
[6] = Cytotoxicity against human MRC5 cells measured after 24 hrs by neutral red uptake assay; format: cell-based
[7] = Stability of compound in pH 6.6 ammonium bicarbonate-formic acid buffer assessed as degradation measured up to 6 hrs by LC-MS analysis; format: physicochemical; settings: read-out: Drug degradation
[8] = Stability of compound in pH 6.6 ammonium bicarbonate-formic acid buffer assessed as parent compound remaining measured after 24 hrs by LC-MS analysis; format: physicochemical; settings: read-out: Stabilty
[9] = Stability of compound in pH 6.6 ammonium bicarbonate-formic acid buffer assessed as hydrolysis measured after 24 hrs by LC-MS analysis; format: physicochemical; settings: pH 6.6, 24 h

SMILES | IC50 ([1]; read-out: IC50) [µM] | MIC99 [2] [µM] | MIC99 [3] [µM] | MIC99 [4] [µM] | MIC99 [5] [µM] | CC50 at 24 h [6] [µM] | degraded at 6 h [7] [%] | remaining at 24 h [8] [%] | Stabilty [9] | IC50 [1]
Cc1cn(C2CCN(Cc3ccc(Oc4ccccc4)cc3)CC2)c(=O)[nH]c1=O | 29 | > 64 | – | – | – | – | – | – | – | –
Cc1cn(C2CCN(Cc3cc(Oc4ccc(C(=O)O)c(O)c4)c4ccccc4n3)CC2)c(=O)[nH]c1=O | 1.3 | – | > 100 | 100 (≈ 50.3 µg/mL) | ≥ 100 | > 64 | – | – | – | –
CCc1nc2ccc(Cl)cn2c1C(=O)NCc1ccc(N2CCC(n3cc(C)c(=O)[nH]c3=O)CC2)cc1 | 47 | – | 4.7 (≈ 2.45 µg/mL) | 2.3 (≈ 1.2 µg/mL) | – | > 64 | – | – | – | –
Cc1cn(C2CCN(Cc3ccc4cccc(O)c4n3)CC2)c(=O)[nH]c1=O | 23 | – | 75 (≈ 27.5 µg/mL) | > 100 | > 100 | 54 | – | – | – | –
Cc1cn(C2CCN(Cc3cc(OCCOC(=O)c4ccc(O)c(O)c4)c4ccccc4n3)CC2)c(=O)[nH]c1=O | 0.14 | – | ≥ 100 | > 100 | > 100 | 6.39 | – | – | – | –
Cc1cn(C2CCN(Cc3ccc(CNC(=O)c4cc([N+](=O)[O-])cc([N+](=O)[O-])c4)cc3)CC2)c(=O)[nH]c1=O | 48 | – | 9.4 (≈ 4.91 µg/mL) | 9.4 (≈ 4.91 µg/mL) | 6.25 (≈ 3.27 µg/mL) | > 64 | – | – | – | –
Cc1cn(C2CCN(Cc3cc(Oc4ccc(OC(=O)c5ccc(O)c(O)c5)cc4)c4ccccc4n3)CC2)c(=O)[nH]c1=O | 0.18 | – | > 50 | 37 (≈ 22 µg/mL) | – | – | < 10 | > 70 | Stable | –
Cc1cn(C2CCN(Cc3cc(Oc4ccc(C(=O)NO)cc4)c4ccccc4n3)CC2)c(=O)[nH]c1=O | 1 | – | > 50 | 50 (≈ 25.1 µg/mL) | – | 32.2 | – | – | – | –
CCc1nc2ccc(Cl)cn2c1C(=O)N1CCC(n2cc(C)c(=O)[nH]c2=O)CC1 | 879 | – | > 100 | > 100 | > 100 | > 64 | – | – | – | –
Cc1cn(C2CCN(Cc3cc(Oc4ccc(/C=N/NC(=S)S)c(O)c4)c4ccccc4n3)CC2)c(=O)[nH]c1=O | 0.31 | – | > 100 | 100 (≈ 57.7 µg/mL) | 25 (≈ 14.4 µg/mL) | 1.45 | < 10 | > 70 | – | –
Cc1cn(C2CCN(Cc3cc(NCCOC(=O)c4ccc(O)c(O)c4)c4ccccc4n3)CC2)c(=O)[nH]c1=O | 0.24 | – | > 100 | > 100 | 100 (≈ 54.6 µg/mL) | > 64 | – | > 70 | – | –
Cc1cn(C2CCN(Cc3cc(Oc4ccc(O)cc4)c4ccccc4n3)CC2)c(=O)[nH]c1=O | 0.83 | – | ≥ 100 | > 100 | ≥ 100 | > 64 | – | – | – | –
Cc1cn(C2CCN(Cc3cc(=O)c4ccccc4[nH]3)CC2)c(=O)[nH]c1=O | 7.8 | – | > 100 | > 100 | > 100 | > 64 | – | – | – | –
Cc1cn(C2CCN(c3ccc(CNC(=O)c4ccc([N+](=O)[O-])cc4[N+](=O)[O-])cc3)CC2)c(=O)[nH]c1=O | – | – | 9.4 (≈ 4.78 µg/mL) | 0.78 (≈ 0.397 µg/mL) | 1.2 (≈ 0.61 µg/mL) | > 64 | – | – | – | Nd(Unstable)
Cc1cn(C2CCN(Cc3cccc(-c4ccccn4)n3)CC2)c(=O)[nH]c1=O | 34 | – | 12.5 (≈ 4.72 µg/mL) | > 100 | > 100 | > 64 | – | – | – | –
Cc1cn(C2CCN(Cc3cc(OCCO)c4ccccc4n3)CC2)c(=O)[nH]c1=O | 2.4 | – | > 100 | > 100 | > 100 | > 64 | – | – | – | –
Cc1cn(C2CCN(Cc3cc(NCCO)c4ccccc4n3)CC2)c(=O)[nH]c1=O | 0.53 | – | > 100 | > 100 | > 100 | > 64 | – | – | – | –
NNC(=O)c1ccncc1 [ISONIAZID] | – | – | 0.15 (≈ 0.0206 µg/mL) | 0.15 (≈ 0.0206 µg/mL) | 0.15 (≈ 0.0206 µg/mL) | – | – | – | – | –
